A short description of series [1]: Preemergence herbicidal activity (% control) against dicot weeds. The conditions noted are these: pre-emergence, 336 h; for activity at 2241.7 g/ha: read-out: Herbicidal activity (% control), preemergence, dicots, 2 lb./A., average, about two weeks after application; for activity at 4483.4 g/ha: read-out: Herbicidal activity (% control), preemergence, dicots, 4 lb./A., average, about two weeks after application.

Series [2] is described as follows: Preemergence herbicidal activity (% control) against monocot weeds. Type of series: in vivo. The conditions noted are these: pre-emergence, 336 h, average, about two weeks after application, read-out: Herbicidal activity (% control), preemergence, monocots; for activity at 2241.7 g/ha: 2 lb./A.; for activity at 4483.4 g/ha: 4 lb./A. An excerpt: (§1) barnyardgrass (Echinochloa crusgalli) crabgrass (Digitaria spp.) nutsedge (Cyperus esculentus)
(§2) At 2 and 4 pounds per acre:
(§3) **Bermudagrass (Cynodon dactylon)
(§4) *downy brome (Bromus tectorum) foxtail (Setaria faberii)
(§5) Johnsongrass (Sorghum halepense) […]
(§6) quackgrass (Agropyron repens)
(§7) *ryegrass (Lolium perenne)
(§8) *wild oats (Avena factua)
(§9) *yellow millet (Panicum miliaceum)
(§10) The following test procedure is employed.

For series [3], the system named is soybeans. Nature of the series: Crop tolerance (selective herbicidal activity), soybeans. In kind it is in vivo. The conditions noted are these: preemergence applications. The protocol: as §10
(§11) Following the general test procedure of Example 37, diphenyl ethers are evaluated for significant tolerance (as shown by 50% or less kill of the test crop at levels of application which give more than 50% kill of many or all of the weeds of Example 73) towards some or all of the following common agronomic crops (not all compounds tested against all crops): alfalfa, snapbeans, corn, cotton, cucumbers, peanuts, rape, rice, safflower, soybeans, tomatoes, and wheat.

Series [4] is described as follows: Postemergence herbicidal activity (% control) against monocot weeds. The conditions noted are these: post-emergence, 336 h, average, about two weeks after application, read-out: Herbicidal activity (% control), postemergence, monocots; for activity at 2241.7 g/ha: 2 lb./A.; for activity at 4483.4 g/ha: 4 lb./A. Type of series: in vivo.
Description: as §1, §2, §3, §4, §5, §6, §7, §8, §9, §10

In series [5] the test system is rice. Description: Crop tolerance (selective herbicidal activity), rice. Type of series: in vivo. The protocol: as §10, §11
Series [6] has as its system corn. Nature of the series: Crop tolerance (selective herbicidal activity), corn. In kind it is in vivo. On the procedure: as §10, §11
Series [7] can be described thus: Postemergence herbicidal activity (% control) against dicot weeds. The conditions noted are these: post-emergence, 336 h; for activity at 4483.4 g/ha: read-out: Herbicidal activity (% control), postemergence, dicots, 4 lb./A., average, about two weeks after application; for activity at 2241.7 g/ha: read-out: Herbicidal activity (% control), postemergence, dicots, 2 lb./A., average, about two weeks after application.

Series [8] relates to peanuts. Nature of the series: Crop tolerance (selective herbicidal activity), peanuts. Type of series: in vivo. On the procedure:
as §10, §11

Series [9] deals with wheat. Nature of the series: Crop tolerance (selective herbicidal activity), wheat. Type of series: in vivo. The conditions noted are these: postemergence applications. On the procedure: as §10, §11
Where [10] appears, read: postemergence applications or applications on transplanted rice.

Regarding `O=[N+]([O-])c1ccc(Oc2ccc(C(F)(F)F)cc2Cl)cc1OCC(F)(F)F` [Example 11], the activity at 2241.7 g/ha stood at 99% in [1], 88% in [2] and 100% in [4]. Also, the activity at 4483.4 g/ha in [1] was 98%; in series [2], 81%; in series [4] it was 82%; in series [7] it was 99%. In addition, in [3], the Tolerance to soybeans entry was “Tolerance (significant tolerance (as shown by 50% or less kill of the test crop at levels of application which give more than 50% kill of many or all of the weeds of Example 73))”. Further, in [5] (setting [10]), the Tolerance to rice entry is listed as “Tolerance (significant tolerance (as shown by 50% or less kill of the test crop at levels of application which give more than 50% kill of many or all of the weeds of Example 73))”. The Tolerance to corn entry in series [6] (preemergence applications) is “Tolerance (significant tolerance (as shown by 50% or less kill of the test crop at levels of application which give more than 50% kill of many or all of the weeds of Example 73))”.

On to `CN(C)c1cc(Oc2ccc(C(F)(F)F)cc2Cl)ccc1[N+](=O)[O-]` [Example 20, 2-chloro-α,α,α-trifluoro-p-tolyl-3-dimethylamino-4-nitrophenyl ether], for which the activity at 2241.7 g/ha in [1] was found to be 93%; in series [2] it was 80%; in series [4], 80%; in series [7], 97%. Also, the activity at 4483.4 g/ha came to 99% in series [1], 88% in series [2], 78% in series [4] and 88% in series [7]. Moreover, in [5] (setting [10]), the Tolerance to rice entry is “Tolerance (significant tolerance (as shown by 50% or less kill of the test crop at levels of application which give more than 50% kill of many or all of the weeds of Example 73))”.

Consider `Cc1cc(Oc2ccc(C(F)(F)F)cc2Cl)ccc1[N+](=O)[O-]` [Example 36], for which the activity at 4483.4 g/ha in [1] stood at 100%; in series [2] it was 93%; in [4] it was 87%; in series [7] it was 100%. For the same compound, the Tolerance to peanuts entry in [8] (postemergence applications) and in series [8] (preemergence applications) was “Tolerance (significant tolerance (as shown by 50% or less kill of the test crop at levels of application which give more than 50% kill of many or all of the weeds of Example 73))” throughout. Moreover, the results for the activity at 2241.7 g/ha in series [2], in [4] and in series [7] were 100%, 94% and 98%, respectively. The Tolerance to wheat entry in [9] was “Tolerance (significant tolerance (as shown by 50% or less kill of the test crop at levels of application which give more than 50% kill of many or all of the weeds of Example 73))”. The Tolerance to corn result in series [6] (postemergence applications) is “Tolerance (significant tolerance (as shown by 50% or less kill of the test crop at levels of application which give more than 50% kill of many or all of the weeds of Example 73))”.

As to `O=[N+]([O-])c1ccc(Oc2ccc(C(F)(F)F)cc2Cl)cc1Cl` [Example 37, 2-chloro-α,α,α-trifluoro-p-tolyl-3-chloro-4-nitrophenyl ether], the activity at 4483.4 g/ha in series [1] was 100%; in series [2] it was 99%; in [4], 92%; in series [7], 100%. Moreover, the Tolerance to peanuts result in [8] (postemergence applications) is recorded as “Tolerance (significant tolerance (as shown by 50% or less kill of the test crop at levels of application which give more than 50% kill of many or all of the weeds of Example 73))”. The activity at 2241.7 g/ha in series [2] and in [4] was 100% throughout.

For `COC(=O)c1cc(Oc2ccc(C(F)(F)F)cc2Cl)ccc1[N+](=O)[O-]` [Example 49, 2-chloro-α,α,α-trifluoro-p-tolyl-3-carbomethoxy-4-nitrophenyl ether], the activity at 2241.7 g/ha in series [1] stood at 100%; in series [2] it was 100%; in series [4] it was 77%; in series [7], 100%. The activity at 4483.4 g/ha in series [1] turned out to be 95%; in series [2] it was 92%; in series [4], 86%; in series [7], 100%. In addition, the Tolerance to peanuts entry in series [8] (preemergence applications) is “Tolerance (significant tolerance (as shown by 50% or less kill of the test crop at levels of application which give more than 50% kill of many or all of the weeds of Example 73))”. Moreover, the Tolerance to soybeans result in [3] is given as “Tolerance (significant tolerance (as shown by 50% or less kill of the test crop at levels of application which give more than 50% kill of many or all of the weeds of Example 73))”. The Tolerance to corn result in [6] (postemergence applications) is on record as “Tolerance (significant tolerance (as shown by 50% or less kill of the test crop at levels of application which give more than 50% kill of many or all of the weeds of Example 73))”.

For the compound `CNC(=O)C(C)Oc1cc(Oc2ccc(C(F)(F)F)cc2Cl)ccc1[N+](=O)[O-]` (centres unmarked) [Example 52], the activity at 2241.7 g/ha in [1] is 75%; in [2] it was 98%; in series [4], 93%; in [7], 100%. For the same compound, the activity at 4483.4 g/ha in series [1] is 67%; in series [2], 79%; in series [4], 87%; in series [7] it was 100%. Further, the Tolerance to peanuts result in series [8] (preemergence applications) is listed as “Tolerance (significant tolerance (as shown by 50% or less kill of the test crop at levels of application which give more than 50% kill of many or all of the weeds of Example 73))”. Besides, in [3], the Tolerance to soybeans result is on record as “Tolerance (significant tolerance (as shown by 50% or less kill of the test crop at levels of application which give more than 50% kill of many or all of the weeds of Example 73))”. In addition, the Tolerance to rice entry in [5] (preemergence applications) is on record as “Tolerance (significant tolerance (as shown by 50% or less kill of the test crop at levels of application which give more than 50% kill of many or all of the weeds of Example 73))”. The Tolerance to corn result in [6] (postemergence applications) and in series [6] (preemergence applications) was “Tolerance (significant tolerance (as shown by 50% or less kill of the test crop at levels of application which give more than 50% kill of many or all of the weeds of Example 73))” in each case.

Consider `CC(Oc1cc(Oc2ccc(C(F)(F)F)cc2Cl)ccc1[N+](=O)[O-])C(=O)N(C)C` (centres unmarked) [Example 53], for which the activity at 2241.7 g/ha in series [1] worked out at 100%; in series [2], 98%; in [4], 81%; in series [7], 100%. Further, the activity at 4483.4 g/ha in [1] amounted to 83%; in [2] it was 98%; in series [4] it was 79%; in series [7], 100%. In addition, the Tolerance to peanuts entry in [8] (postemergence applications) and in series [8] (preemergence applications) was “Tolerance (significant tolerance (as shown by 50% or less kill of the test crop at levels of application which give more than 50% kill of many or all of the weeds of Example 73))” in each case. The Tolerance to soybeans result in [3] is “Tolerance (significant tolerance (as shown by 50% or less kill of the test crop at levels of application which give more than 50% kill of many or all of the weeds of Example 73))”. The Tolerance to rice result in series [5] (setting [10]) was “Tolerance (significant tolerance (as shown by 50% or less kill of the test crop at levels of application which give more than 50% kill of many or all of the weeds of Example 73))”. Moreover, the Tolerance to corn entry in series [6] (postemergence applications) is “Tolerance (significant tolerance (as shown by 50% or less kill of the test crop at levels of application which give more than 50% kill of many or all of the weeds of Example 73))”.

For the compound `CCN(C(=O)NC)c1cc(Oc2ccc(C(F)(F)F)cc2Cl)ccc1[N+](=O)[O-]` [Example 55, 2-Chloro-α,α,α-trifluoro-p-tolyl-3-(3-methyl-1-ethylureido)-4-nitrophenyl ether], the activity at 4483.4 g/ha in series [1] was determined as 73%; in series [2], 91%; in series [4], 69%; in series [7], 95%. Also, the activity at 2241.7 g/ha in [4] was 31%; in [7] it was 96%.
